Assay results as given in paper PMC11233931, “Remodeling tumor‐associated macrophage for anti‐cancer effects by rational design of irreversible inhibition of mitogen‐activated protein kinase‐activated protein kinase 2” (MedComm, 2024).

Tests used:
Test in all cases: Eurofins kinase selectivity profile against 380 other human recombinant kinases (Table S2)
Format in all cases: biochemical
[1] = biological target: T1, 380 human recombinant protein kinases (Homo sapiens, UniProt O75116); details: ROCK-II(h), read-out: Inhibition rate
T1 construct: purchased Eurofins (Celle Lévescault)
T1 sequence (O75116 whole entry): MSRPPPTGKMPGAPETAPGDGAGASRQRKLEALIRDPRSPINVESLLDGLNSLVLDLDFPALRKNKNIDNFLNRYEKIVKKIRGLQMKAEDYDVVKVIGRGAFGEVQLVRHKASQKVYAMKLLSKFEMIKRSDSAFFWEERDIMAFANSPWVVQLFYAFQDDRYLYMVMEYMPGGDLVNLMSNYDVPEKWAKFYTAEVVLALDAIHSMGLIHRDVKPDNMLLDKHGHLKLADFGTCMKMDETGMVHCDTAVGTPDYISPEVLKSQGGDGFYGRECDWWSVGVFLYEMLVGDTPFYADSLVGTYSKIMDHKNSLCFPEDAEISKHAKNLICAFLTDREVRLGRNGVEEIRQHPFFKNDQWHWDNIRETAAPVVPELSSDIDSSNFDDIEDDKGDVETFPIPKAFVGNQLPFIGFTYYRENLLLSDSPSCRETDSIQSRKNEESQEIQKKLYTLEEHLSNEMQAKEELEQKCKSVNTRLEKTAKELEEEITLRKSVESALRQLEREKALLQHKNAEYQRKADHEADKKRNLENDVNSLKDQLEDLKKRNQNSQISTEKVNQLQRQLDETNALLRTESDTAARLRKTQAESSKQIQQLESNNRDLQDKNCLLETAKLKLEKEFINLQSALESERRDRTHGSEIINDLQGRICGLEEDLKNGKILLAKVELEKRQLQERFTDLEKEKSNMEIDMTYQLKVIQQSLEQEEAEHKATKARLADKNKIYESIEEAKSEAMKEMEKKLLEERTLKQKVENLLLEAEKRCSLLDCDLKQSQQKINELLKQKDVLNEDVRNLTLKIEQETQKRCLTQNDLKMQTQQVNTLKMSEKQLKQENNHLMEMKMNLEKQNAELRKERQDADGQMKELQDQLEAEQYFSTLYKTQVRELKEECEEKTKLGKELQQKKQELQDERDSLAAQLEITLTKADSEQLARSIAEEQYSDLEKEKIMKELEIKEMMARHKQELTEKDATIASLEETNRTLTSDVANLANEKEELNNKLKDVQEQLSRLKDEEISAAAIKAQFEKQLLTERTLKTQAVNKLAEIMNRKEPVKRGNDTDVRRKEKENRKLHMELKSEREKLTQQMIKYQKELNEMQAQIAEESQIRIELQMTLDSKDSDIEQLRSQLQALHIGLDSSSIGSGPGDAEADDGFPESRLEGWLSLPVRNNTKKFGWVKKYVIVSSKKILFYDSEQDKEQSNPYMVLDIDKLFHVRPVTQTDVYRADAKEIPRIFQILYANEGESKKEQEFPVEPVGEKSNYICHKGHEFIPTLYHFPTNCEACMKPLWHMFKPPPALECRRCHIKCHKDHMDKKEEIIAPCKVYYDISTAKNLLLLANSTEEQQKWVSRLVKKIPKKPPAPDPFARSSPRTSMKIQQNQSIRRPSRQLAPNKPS
In short: (§1)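 Selectivity panel of 380 human recombinant protein kinases, screened by Eurofins at a range of concentrations.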

[2] = biological target: T2, 380 human recombinant protein kinases (Homo sapiens, UniProt P08581); details: Met(h), read-out: Inhibition rate
T2 construct: purchased Eurofins (Celle Lévescault)
In short: as §1

[3] = biological target: T3, 380 human recombinant protein kinases (Homo sapiens, UniProt P41743); details: PKCι(h), read-out: Inhibition rate
T3 construct: purchased Eurofins (Celle Lévescault)
T3 sequence (P41743 1-596): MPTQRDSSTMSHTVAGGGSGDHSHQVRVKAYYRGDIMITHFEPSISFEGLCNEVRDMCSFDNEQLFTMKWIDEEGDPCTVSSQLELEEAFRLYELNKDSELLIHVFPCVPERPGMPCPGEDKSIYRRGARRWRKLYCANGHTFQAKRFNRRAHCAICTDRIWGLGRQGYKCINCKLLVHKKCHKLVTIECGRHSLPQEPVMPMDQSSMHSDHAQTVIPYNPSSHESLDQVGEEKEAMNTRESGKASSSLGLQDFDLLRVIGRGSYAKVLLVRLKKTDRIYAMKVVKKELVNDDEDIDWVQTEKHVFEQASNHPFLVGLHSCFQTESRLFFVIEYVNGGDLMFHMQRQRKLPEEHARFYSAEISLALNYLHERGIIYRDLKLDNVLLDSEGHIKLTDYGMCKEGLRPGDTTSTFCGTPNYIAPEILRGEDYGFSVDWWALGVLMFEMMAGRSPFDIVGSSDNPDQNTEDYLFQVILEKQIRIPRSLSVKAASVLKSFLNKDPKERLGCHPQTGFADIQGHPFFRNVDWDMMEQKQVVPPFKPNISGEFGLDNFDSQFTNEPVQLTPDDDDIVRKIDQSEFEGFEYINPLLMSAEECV
In short: as §1

[4] = biological target: T4, 380 human recombinant protein kinases (Homo sapiens, UniProt P49760); details: CLK2(h), read-out: Inhibition rate
T4 construct: purchased Eurofins (Celle Lévescault)
T4 sequence (P49760 whole entry): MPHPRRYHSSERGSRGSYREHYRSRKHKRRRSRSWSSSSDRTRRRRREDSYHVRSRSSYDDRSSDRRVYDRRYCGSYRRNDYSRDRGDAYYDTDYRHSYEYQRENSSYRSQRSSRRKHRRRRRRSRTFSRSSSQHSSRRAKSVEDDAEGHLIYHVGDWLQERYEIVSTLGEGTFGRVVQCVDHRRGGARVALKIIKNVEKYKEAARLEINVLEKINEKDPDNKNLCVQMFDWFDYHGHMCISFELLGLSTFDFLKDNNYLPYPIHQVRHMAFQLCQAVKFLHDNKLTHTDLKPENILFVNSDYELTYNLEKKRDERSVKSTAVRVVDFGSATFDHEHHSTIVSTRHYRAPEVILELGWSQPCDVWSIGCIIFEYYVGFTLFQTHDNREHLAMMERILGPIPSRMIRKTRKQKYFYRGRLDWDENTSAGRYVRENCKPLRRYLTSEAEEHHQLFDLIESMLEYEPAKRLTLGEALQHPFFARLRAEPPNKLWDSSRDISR
In short: as §1

[5] = biological target: T5, 380 human recombinant protein kinases (Homo sapiens, UniProt P54753); details: EphB3(h), read-out: Inhibition rate
T5 construct: purchased Eurofins (Celle Lévescault)
T5 sequence (P54753 34-998): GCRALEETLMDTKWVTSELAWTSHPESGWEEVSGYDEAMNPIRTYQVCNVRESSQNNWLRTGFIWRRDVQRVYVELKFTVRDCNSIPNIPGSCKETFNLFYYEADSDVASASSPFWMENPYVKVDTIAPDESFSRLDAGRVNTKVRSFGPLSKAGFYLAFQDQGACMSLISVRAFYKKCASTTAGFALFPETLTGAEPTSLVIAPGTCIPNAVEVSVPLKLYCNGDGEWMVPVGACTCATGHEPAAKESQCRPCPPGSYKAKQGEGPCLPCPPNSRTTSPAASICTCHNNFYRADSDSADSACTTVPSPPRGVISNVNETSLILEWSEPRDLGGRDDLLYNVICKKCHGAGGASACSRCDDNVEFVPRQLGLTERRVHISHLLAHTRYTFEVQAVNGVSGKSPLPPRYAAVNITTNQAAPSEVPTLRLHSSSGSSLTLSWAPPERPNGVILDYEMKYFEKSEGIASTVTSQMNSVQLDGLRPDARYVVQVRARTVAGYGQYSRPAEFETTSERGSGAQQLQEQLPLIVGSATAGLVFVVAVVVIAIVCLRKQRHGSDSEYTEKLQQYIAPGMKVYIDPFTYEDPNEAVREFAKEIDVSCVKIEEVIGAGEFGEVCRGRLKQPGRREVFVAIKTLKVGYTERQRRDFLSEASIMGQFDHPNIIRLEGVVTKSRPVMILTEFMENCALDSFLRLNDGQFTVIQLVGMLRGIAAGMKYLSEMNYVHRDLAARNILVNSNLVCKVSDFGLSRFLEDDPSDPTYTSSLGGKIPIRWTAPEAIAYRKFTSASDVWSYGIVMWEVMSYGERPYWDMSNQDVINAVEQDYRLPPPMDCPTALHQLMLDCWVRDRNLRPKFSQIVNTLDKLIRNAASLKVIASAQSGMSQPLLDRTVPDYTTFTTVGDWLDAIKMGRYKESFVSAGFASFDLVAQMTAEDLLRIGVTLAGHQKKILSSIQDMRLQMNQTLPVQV
In short: as §1

[6] = biological target: T6, 380 human recombinant protein kinases (Homo sapiens, UniProt P54756); details: EphA5(h), read-out: Inhibition rate
T6 construct: purchased Eurofins (Celle Lévescault)
In short: as §1

[7] = biological target: T7, 380 human recombinant protein kinases (Homo sapiens, UniProt Q86UE8); details: TLK2(h), read-out: Inhibition rate (%)
T7 construct: purchased Eurofins (Celle Lévescault)
T7 sequence (Q86UE8 whole entry): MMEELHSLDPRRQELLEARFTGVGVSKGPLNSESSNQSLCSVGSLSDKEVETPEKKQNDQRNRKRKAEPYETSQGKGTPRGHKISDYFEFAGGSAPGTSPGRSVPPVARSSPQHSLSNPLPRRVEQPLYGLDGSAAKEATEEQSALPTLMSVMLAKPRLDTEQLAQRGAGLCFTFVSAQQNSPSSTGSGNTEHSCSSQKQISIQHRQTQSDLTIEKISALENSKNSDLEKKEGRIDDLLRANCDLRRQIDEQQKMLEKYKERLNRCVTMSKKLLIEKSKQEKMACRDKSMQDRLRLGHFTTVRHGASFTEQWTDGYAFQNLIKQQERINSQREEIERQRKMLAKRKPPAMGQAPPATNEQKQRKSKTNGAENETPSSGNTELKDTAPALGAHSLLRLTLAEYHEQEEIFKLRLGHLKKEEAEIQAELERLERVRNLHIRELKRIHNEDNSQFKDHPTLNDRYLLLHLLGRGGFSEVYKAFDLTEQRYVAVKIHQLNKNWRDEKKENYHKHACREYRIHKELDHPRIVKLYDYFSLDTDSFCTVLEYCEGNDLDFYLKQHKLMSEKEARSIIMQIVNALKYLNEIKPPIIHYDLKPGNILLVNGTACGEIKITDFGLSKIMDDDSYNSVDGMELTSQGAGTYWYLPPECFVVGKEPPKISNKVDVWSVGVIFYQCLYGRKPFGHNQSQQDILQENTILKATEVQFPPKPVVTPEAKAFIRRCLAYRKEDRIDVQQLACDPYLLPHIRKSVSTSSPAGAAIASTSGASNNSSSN
In short: as §1

[8] = biological target: T8, 380 human recombinant protein kinases (Homo sapiens, UniProt Q9Y3S1); details: WNK2(h), read-out: Inhibition rate (%)
T8 construct: purchased Eurofins (Celle Lévescault)
T8 sequence (Q9Y3S1 whole entry): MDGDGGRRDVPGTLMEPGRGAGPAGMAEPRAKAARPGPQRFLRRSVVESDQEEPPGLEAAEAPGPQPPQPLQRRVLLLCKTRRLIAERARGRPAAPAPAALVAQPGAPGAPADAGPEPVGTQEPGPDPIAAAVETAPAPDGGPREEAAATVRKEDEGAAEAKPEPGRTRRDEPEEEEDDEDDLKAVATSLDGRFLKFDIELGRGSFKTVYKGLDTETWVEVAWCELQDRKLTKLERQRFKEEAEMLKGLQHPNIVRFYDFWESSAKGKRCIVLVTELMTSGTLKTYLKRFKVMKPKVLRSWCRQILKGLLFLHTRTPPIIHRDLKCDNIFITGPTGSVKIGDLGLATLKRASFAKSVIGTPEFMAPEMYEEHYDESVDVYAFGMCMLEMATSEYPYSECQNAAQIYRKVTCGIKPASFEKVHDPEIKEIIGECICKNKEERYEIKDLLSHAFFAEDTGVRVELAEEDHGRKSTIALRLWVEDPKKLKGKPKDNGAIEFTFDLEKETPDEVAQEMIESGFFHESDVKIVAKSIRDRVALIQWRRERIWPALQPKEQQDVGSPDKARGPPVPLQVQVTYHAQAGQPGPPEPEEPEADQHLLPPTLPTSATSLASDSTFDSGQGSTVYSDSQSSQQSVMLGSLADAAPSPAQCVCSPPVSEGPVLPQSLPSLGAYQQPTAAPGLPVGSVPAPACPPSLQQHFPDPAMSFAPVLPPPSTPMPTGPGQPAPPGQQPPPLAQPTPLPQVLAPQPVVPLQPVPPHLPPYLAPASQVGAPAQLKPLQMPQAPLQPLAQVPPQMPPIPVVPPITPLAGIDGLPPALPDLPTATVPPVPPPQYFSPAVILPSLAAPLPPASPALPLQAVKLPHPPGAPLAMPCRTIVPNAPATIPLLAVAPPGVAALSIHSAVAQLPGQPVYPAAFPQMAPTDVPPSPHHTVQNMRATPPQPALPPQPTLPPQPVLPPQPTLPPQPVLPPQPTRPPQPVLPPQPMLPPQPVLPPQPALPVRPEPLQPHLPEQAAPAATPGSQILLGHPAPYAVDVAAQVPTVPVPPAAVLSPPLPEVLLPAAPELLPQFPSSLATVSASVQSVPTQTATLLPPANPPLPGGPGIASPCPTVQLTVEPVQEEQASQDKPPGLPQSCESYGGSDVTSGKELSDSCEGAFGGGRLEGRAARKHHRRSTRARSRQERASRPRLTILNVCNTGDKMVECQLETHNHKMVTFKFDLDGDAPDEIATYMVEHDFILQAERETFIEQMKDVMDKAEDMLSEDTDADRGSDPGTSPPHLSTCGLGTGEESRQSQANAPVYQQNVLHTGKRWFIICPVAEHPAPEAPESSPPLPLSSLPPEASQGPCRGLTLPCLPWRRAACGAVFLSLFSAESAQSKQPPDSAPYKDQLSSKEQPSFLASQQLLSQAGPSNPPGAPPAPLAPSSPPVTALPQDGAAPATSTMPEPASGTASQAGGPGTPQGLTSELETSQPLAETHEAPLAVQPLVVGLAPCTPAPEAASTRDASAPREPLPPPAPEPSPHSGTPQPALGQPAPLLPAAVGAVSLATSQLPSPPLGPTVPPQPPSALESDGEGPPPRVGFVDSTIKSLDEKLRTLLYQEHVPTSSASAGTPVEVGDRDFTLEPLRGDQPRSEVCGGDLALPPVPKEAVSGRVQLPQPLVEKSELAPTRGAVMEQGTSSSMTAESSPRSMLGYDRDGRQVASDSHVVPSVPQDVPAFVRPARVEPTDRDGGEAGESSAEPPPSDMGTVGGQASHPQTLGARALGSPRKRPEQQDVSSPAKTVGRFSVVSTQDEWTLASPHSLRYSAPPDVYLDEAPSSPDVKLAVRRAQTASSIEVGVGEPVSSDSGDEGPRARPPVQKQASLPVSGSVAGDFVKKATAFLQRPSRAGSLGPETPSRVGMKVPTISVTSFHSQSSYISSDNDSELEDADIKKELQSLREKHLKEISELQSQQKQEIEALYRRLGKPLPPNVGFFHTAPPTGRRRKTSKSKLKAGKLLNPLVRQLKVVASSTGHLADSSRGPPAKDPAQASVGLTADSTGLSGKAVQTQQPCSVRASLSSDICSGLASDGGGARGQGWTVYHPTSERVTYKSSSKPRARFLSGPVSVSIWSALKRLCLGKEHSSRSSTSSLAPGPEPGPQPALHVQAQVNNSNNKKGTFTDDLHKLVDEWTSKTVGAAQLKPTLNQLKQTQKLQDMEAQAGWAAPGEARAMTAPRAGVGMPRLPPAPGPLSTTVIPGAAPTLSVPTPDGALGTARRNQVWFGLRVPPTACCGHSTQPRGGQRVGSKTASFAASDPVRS
In short: as §1

C=CC(=O)Nc1cc(-c2cc(-c3cc4c([nH]3)CCNC4=O)ccn2)ccc1OC(F)(F)F [compound 11]
inhibition at 0.01 µM ([1]; 10 nM): -3%
inhibition at 0.1 µM ([1]; 100 nM): 0%
inhibition at 1 µM ([1]; 1000 nM): -6%
inhibition at 0.01 µM ([2]; 10 nM): 6%
inhibition at 0.1 µM ([2]; 100 nM): 21%
inhibition at 1 µM ([2]; 1000 nM): 62%
inhibition at 0.01 µM ([3]; 10 nM): 0%
inhibition at 0.1 µM ([3]; 100 nM): 5%
inhibition at 1 µM ([3]; 1000 nM): 8%
inhibition at 0.01 µM ([4]; 10 nM): 1%
inhibition at 0.1 µM ([4]; 100 nM): 10%
inhibition at 1 µM ([4]; 1000 nM): 42%
inhibition at 0.01 µM ([5]; 10 nM): 3%
inhibition at 0.1 µM ([5]; 100 nM): -12%
inhibition at 1 µM ([5]; 1000 nM): -1%
inhibition at 0.01 µM ([6]; 10 nM): -1%
inhibition at 0.1 µM ([6]; 100 nM): 4%
inhibition at 1 µM ([6]; 1000 nM): 1%
inhibition at 0.01 µM ([7]; 10 nM): 13%
inhibition at 0.1 µM ([7]; 100 nM): 1%
inhibition at 1 µM ([7]; 1000 nM): -2%
inhibition at 0.01 µM ([8]; 10 nM): 11%
inhibition at 0.1 µM ([8]; 100 nM): 19%
inhibition at 1 µM ([8]; 1000 nM): 17%
